# Structures can show the parent of a compound that is named as a salt.
# Columns and labels:
# human ATP8B1 = target: T1, human ATP8B1 (Homo sapiens, UniProt O43520); test: Phospholipid-stimulated ATPase activity of full-length ATP8B1; assay type: biochemical
# T1 sequence (O43520 1-1251): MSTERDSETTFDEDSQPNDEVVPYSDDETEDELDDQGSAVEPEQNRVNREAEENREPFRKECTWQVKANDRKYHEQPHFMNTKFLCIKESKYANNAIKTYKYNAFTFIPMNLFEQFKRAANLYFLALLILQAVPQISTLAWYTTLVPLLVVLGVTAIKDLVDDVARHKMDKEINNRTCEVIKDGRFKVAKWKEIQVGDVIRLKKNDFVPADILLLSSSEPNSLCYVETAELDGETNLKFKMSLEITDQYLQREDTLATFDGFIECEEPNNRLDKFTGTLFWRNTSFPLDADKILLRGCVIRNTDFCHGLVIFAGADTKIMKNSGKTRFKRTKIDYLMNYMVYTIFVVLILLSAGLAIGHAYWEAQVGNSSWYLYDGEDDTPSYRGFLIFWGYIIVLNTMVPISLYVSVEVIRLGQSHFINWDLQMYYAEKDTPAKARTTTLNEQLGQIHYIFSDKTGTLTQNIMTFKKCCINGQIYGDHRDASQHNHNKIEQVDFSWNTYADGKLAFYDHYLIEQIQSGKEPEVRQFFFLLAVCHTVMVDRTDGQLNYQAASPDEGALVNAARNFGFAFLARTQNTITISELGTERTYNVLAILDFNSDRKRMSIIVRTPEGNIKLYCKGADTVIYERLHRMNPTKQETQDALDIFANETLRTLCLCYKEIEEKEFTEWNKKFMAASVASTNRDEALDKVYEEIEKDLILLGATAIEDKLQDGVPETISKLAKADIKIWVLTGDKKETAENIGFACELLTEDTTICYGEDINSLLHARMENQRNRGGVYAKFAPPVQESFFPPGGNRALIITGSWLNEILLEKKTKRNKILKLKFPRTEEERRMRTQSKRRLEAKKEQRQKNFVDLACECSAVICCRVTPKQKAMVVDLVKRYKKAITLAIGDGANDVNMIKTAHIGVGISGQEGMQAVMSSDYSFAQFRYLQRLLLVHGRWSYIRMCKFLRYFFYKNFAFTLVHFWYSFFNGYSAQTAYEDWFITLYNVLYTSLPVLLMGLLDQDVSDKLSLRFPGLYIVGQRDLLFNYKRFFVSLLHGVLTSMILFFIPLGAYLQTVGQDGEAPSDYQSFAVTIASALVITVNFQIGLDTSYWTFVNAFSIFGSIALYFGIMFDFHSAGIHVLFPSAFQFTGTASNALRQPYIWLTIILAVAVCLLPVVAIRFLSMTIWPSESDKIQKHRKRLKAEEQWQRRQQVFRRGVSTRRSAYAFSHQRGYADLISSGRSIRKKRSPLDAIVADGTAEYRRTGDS
# Description: FIG. 8E is a bar graph showing ATPase activity of ATP8B1 in presence of various lipids (300 µM).
# FIG. 8F is a graph showing phospholipid concentration-dependent ATPase activity of ATP8B1. Graph representing data points of three independent experiments, values are mean±SD and fitted by a non-linear dose-dependent curve.
# ATP8B1 deletion may affect PIP2 translocation due to changes in membrane properties or by indirectly influencing the activity of other proteins involved in lipid trafficking. To determine if ATP8B1 can directly flip PIP2, a cell-free system was reconstituted. The GST-tagged human ATP8B1 protein was cloned in a baculovirus, followed by transduction of insect Sf9 cells, and expression was confirmed by western blot using anti-GST antibody.
# (§1) Next, we utilized reconstituted ATP8B1-proteoliposomes with NBD-labeled phospholipids and sodium dithionite quenching assay to measure phospholipid flip (FIG. 8G), as described before. A marked decrease in the fluorescence intensity of NBD-PIP2 was observed following dithionite quenching of ATP8B1 containing proteoliposomes vs. control liposomes, with ˜12% NBD-PIP2 flip in 5 min, ˜22% NBD-PIP2 flip in 30 min, and ˜27% NBD-PIP2 flipped in 60 min (FIG. 8H, 8I).
# ATP8B1 proteoliposomes = target: T2, ATP8B1 proteoliposomes (Homo sapiens, UniProt O43520); test: NBD-phospholipid flip in ATP8B1 proteoliposomes, sodium dithionite quenching assay; assay type: biochemical; settings: proteoliposomes vs. empty liposomes
# T2 construct: The ATPase activity of full-length ATP8B1 was determined in the presence of various phospholipids; GST; made in house; host or cells: Sf9 insect cells (baculovirus)
# T2 sequence (O43520 1-1251): T1 sequence (O43520 1-1251)
# Description: FIG. 8G is a schematic diagram for PIP2 flip assay in ATP8B1 proteoliposomes vs. empty liposomes.
# FIG. 8H is a graph showing sodium dithionite quenching of NBD-PIP2 on the outer side of the proteoliposomes vs. empty liposomes over 10 min, Triton-X-100 was used to quench all the remaining NBD-PIP2.
# FIG. 8I is a graph showing the percentage PIP2 flipped over time in proteoliposomes vs. empty liposomes±sodium dithionite, ±Triton-X-100, data are from 3 independent experiments, values are mean±SD, **** show p<0.0001 by t-test.
# FIG. 8J is a graph showing sodium dithionite quenching of NBD-PE on the outer side of the proteoliposomes vs. empty liposomes over 10 min, Triton-X-100 was used to quench the remaining inner leaflet NBD-PE.
# FIG. 8K is a bar graph showing the percentage PE flip over time in proteoliposomes vs. empty liposomes±Sodium dithionite, ±Triton-X-100. […]
# as §1
# [1] = tested on: HepG2 cells (WT or ATP8b1−/−); test: Confocal-microscopy-based NBD-phospholipid flip assay with BSA back-exchange; assay type: cell-based, human; settings: after BSA wash, up to 60 min
# Description: (§2) FIG. 8A is an image of WT or ATP8b1^−/− HepG2 cells pre-incubated with phospholipase inhibitors at 20° C. were supplemented with NBD-PIP2 followed by incubation for up to 60 min to allow lipid internalization. Cells were subjected to back-exchange with BSA, followed by TBSS wash, and visualization by confocal laser scanning microscopy. FIRE look-up table (ImageJ) was used to highlight intensity variations in PIP2 flip. Images are representative of three independent experiments. Scale bar: 20 μm.
# as §2, with “8B” for “8A”, “NBD-PE” for “NBD-PIP2”
# FIG. 8C is a graph showing quantification of flipped NBD-PIP2 in WT and ATP8b1^−/− HePG2 cells (N=25 cells, values are mean±SD; **** show p<0.0001 by t-test.
# FIG. 8D is a graph showing quantification of flipped NBD-PE in WT and ATP8b1^−/− HePG2 cells (N=25 cells, values are mean±SD; **** show p<0.0001 by t-test. […]
# GsdmD = target: T3, GsdmD (Homo sapiens, UniProt P57764); settings: cited from earlier work
# T3 sequence (P57764 1-484): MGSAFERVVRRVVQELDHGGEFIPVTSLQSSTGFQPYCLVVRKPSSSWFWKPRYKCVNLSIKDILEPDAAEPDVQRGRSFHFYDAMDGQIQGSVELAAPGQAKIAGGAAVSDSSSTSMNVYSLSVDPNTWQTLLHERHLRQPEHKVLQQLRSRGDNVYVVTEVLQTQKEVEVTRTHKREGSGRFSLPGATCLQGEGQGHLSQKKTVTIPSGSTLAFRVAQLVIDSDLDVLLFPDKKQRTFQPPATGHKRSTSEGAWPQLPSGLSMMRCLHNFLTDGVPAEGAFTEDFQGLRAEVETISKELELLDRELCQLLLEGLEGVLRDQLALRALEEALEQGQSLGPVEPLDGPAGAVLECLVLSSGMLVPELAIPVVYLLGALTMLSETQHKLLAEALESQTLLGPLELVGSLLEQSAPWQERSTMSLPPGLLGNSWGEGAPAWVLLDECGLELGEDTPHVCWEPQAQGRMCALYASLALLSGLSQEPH
molecule,measurement,setting,value
phosphatidylcholine [PC],EC50 of stimulated activity of ATP8B1 relative to PIP2,human ATP8B1; higher than PIP2,1.75 fold
NBD-PE,NBD-lipid flip,ATP8B1 proteoliposomes,No significant changes
same,flip of NBD-lipid in ATP8B1−/− vs. WT cells,[1],no differences
"CCCCCCCC/C=C\CCCCCCCC(=O)OC[C@H](COP(=O)(O)O[C@@H]1[C@H](O)[C@H](O)[C@@H](OP(=O)(O)O)[C@H](OP(=O)(O)O)[C@H]1O)OC(=O)CCCCCCC/C=C\CCCCCCCC [PIP2, phosphatidylinositol-4,5-bisphosphate]",ATPase activity of full-length ATP8B1,human ATP8B1; 300 μM lipid,notable increase in ATPase activity
COC(=O)/C=C/C(=O)OC [dimethyl fumarate],effect on GsdmD,GsdmD,promotes succination of GsdmD

# Source: patent US20250340885A1, “COMPOSITIONS AND METHODS FOR MODULATING CONDITIONS ASSOCIATED WITH ALTERED ATP8B1 FUNCTION” (CLEVELAND STATE UNIVERSITY, priority 2024, published 2025)
